In US6706686B2, “Inhibition of histone deacetylase as a treatment for cardiac hypertrophy” (The Regents of the University of Colorado, priority 2001, dated 2004):

What was measured:
[1] = test system: SERCA, α-/β-MyHC, ANP, BNP, cardiac α-actin mRNA in cardiac myocytes; test: Myocyte-specific mRNA expression by RNase protection assay; assay type: cell-based, rat
Procedure: FIGS. 1A-C. TSA alters agonist-induced gene repression. Cultured cardiac myocytes were treated with PE (20 μmol/L) or IL-1 (1 ng/mL) for 48 hrs. TSA (30 nmol/L) was added 30 min. prior to treatment with PE or IL-1. Myocyte-specific mRNA expression (SERCA2a (FIG. 1A), αMyHC (FIG. 1B), βMyHC (FIG. 1C) was assayed in 5 μg total RNA by RNase protection assay. Mean data are from 4 cultures, and are presented as % of control after normalization to GAPDH signal.
Cell culture. Ventricular myocytes from one-day-old rats were plated at low density in MEM with 5% calf serum, and studied in serum-free MEM. Cultures were treated with PE (#P6126, Sigma-Aldrich Corp., St. Louis, Mo.), IL-1 (#501-RL, R&D Systems, Minneapolis, Minn.), TSA (#GR-309, BIOMOL Research Laboratories, Inc., Plymouth Meeting, Pa.) or their vehicles (ascorbic acid for PE; bovine serum albumin for IL-1; dimethyl sulfoxide for TSA).
Quantification of myocyte hypertrophy and myocyte-specific mRNA expression. Growth of cultured myocytes was quantified by content of radiolabeled protein after continuous incubation with ^14C-phenylalanine. For evaluation of the myocyte gene program, total RNA was extracted from cells with TRIZol (GIBCO, Carlsbad, Calif.) and used in RNase protection assay with probes for SERCA, α-/β-MyHC, ANP, BNP, and cardiac α-actin. All samples also included glyceraldehyde phosphate dehydrogenase (GAPDH) as an internal control for RNA loading.

[2] = test system: ANF in neonatal cardiomyocytes; test: ANF chemiluminescence detection, dose response; assay type: cell-based, rat
Procedure: FIGS. 4A-C. […] As in the transfection experiments, phenylephrine (100 µM) induces ANF expression over three-fold. […] (FIGS. 4B and 4C) The graphs show a reduction of the chemiluminent detection of ANF in the culture medium with increasing concentrations of the HDAC inhibitors TSA (FIG. 4B) and sodium butyrate (FIG. 4C) when co-cultured with the hypertrophic stimulants FBS, PE or ET-1.
Chemilumenescence. Neonatal cardiomyocytes were seeded onto 96-well plates and treated for 72 hrs. The cells were washed twice in 1×PBS, fixed in 4% paraformaldehyde/1×PBS, and permeabilized with 0.1% Triton-X100. After blocking, the cells were incubated 1 hr. with 10 μg/ml monoclonal anti-ANF antibody (Biodesign). The wells were washed twice with 1% BSA/1× PBS and then incubated for 1 hr. with goat anti-mouse IgG-Fc-HRP (Jackson Labs, […]) at 1:1000 in 1× PBS/1% BSA. Cells were washed twice with 1% BSA/1×PBS, twice with 1× PBS, then blotted dry. Luminol (Pierce, Rockford, Ill.) was added and the chemiluminescence was detected in a Fusion Plate Reader (Perkin Elmer/Packard).

[3] = test system: rat neonatal cardiomyocytes; test: Gene chip array analysis; assay type: cell-based; details: two-or-more-fold difference
Procedure: FIGS. 7A-B. TSA induces the activation of genes that are involved in cardiomyocyte differentiation. […] (FIG. 7B) Four genes were inactivated by phenylephrine and activated by TSA (results from one phenylephrine chip, two phenylephrine/TSA chips, and one TSA chip.)
Gene chip and analysis. RNA was isolated using Trizol (Invitrogen, Carlsbad, Calif.) from untreated, phenylephrine-treated, TSA-treated, and phenylephine/TSA co-treated rat neonatal cardiomyocytes. The RNAs were prepared and hybridized on U34A chips (Affymetrix, Inc., Santa Clara, Calif.) according to Affymetrix protocols. The intensity of hybridization was detected by and changes in gene expression were determined and analyzed by Micro Array Suite 5.0 (Affymetrix, Inc., Santa Clara, Calif.).

[4] = test system: SERCA, αMyHC, βMyHC promoters in cultured myocytes; test: CAT reporter assay of myocyte-specific promoters; assay type: cell-based, rat; details: TSA 30 nmol/L
Procedure: FIGS. 2A-D. Over-expression of HDACs repress muscle-specific promoters. Cultured myocytes were transfected for 72 hrs. with expression vectors (2 μg per ˜3×10^5 cells) for Flag-tagged HDAC1, 4, 5 (or its backbone vector) and CAT reporter (5 μg) constructs for SERCA (FIG. 2A), αMyHC (FIG. 2B), βMyHC (FIGS. 2C and 2D) genes, plus SV40-driven secreted alkaline phosphatase (SEAP 1 μg, Clontech). TSA was used at 30 nmol/L, and added just after the transfection. PE […] (20 μmol/L) was added 24 hrs. later and CAT assays performed after an additional 48 hours. Mean data are from n=3 different cultures, and are presented as % of pCMV after normalization to SEAP activity in the media. Over-expression of HDAC was confirmed by Western blot for Flag.
Transfection. Myocytes were transfected using calcium-phosphate co-precipitation with cytomegalovirus promoter driven Flag-tagged expression vectors for HDACs 1, 4, 5 and reporter plasmids carrying the rat promoters for SERCA (3500 bp), αMyHC (2900 bp), or βMyHC (3300 bp) driving expression […] of the chroramphenicol acetyltransferase (CAT) gene. Reporter expression was evaluated after 48 hours as described previously with corection for transfection efficiency with SEAP (BD Biosciences Clontech, Palo Alto, Calif.). Over-expression of HDACs was confirmed by Western blot analyses using anti-Flag M2 antibody (Sigma-Aldrich Corp. St. Louis, Mo.).

`CC(/C=C/C(=O)NO)=C\[C@@H](C)C(=O)c1ccc(N(C)C)cc1` [TSA, Trichostatin A] was tested, and the “αMyHC (so in the source) expression in presence of IL-1 alone” value ([1]; IL-1 alone) was “increased αMyHC expression”, the “IL-1 suppression of PE induction of αMyHC (so in the source)” value ([1]; PE/IL-1 co-treated cells) was “reversed the IL-1 effect” and the “basal SERCA2a mRNA expression” value ([1]; TSA 30 nmol/L, 48 hrs) was “increased the basal expression”. The “basal αMyHC mRNA expression” value ([1]; TSA 30 nmol/L, 48 hrs) was “increased the basal expression”, the “reversal of αMyHC repression in IL-1 treated (or co-treated) cells” value ([1]; TSA pre-treatment, IL-1) was “less prominent” and the “PE effect on αMyHC expression” value ([1]; TSA pre-treatment, PE) was “nearly complete reversal of the PE effect”. For the same compound, the “repression of SERCA expression by hypertrophic stimuli” value ([1]; TSA pre-treatment, PE 20 μmol/L or IL-1 1 ng/mL) was “substantial reversal in the repression of SERCA expression”, the “gene expression of cardiac α-actin, ANP, or BNP” value ([1]; any hypertrophic treatment condition) was “did not affect gene expression” and the “basal expression or PE-induction of αMyHC (so in the source)” value ([1]; basal or PE) was “had no effects on either the basal expression or PE-induction”. For the same compound, the “minimal concentration that inhibited the hypertrophic response (ANF) of each growth stimulant” value ([2]; FBS, PE, ET-1) was 40 nM, the “induction of ANF expression by FBS, PE and ET-1” value ([2]; increasing concentrations) was “countered the induction of ANF expression” and the “ANF expression at very low doses” value ([2]; very low doses (0.2 nM printed for sodium butyrate)) was “only a marginal increase”. For the same compound, the “expression of big Tau-microtubule-associated protein, ubiquitin carboxyl-terminal hydrolase, Thy-1 cell-surface glycoprotein, MyHC class I antigen” value ([3]; genes down-regulated by phenylephrine) was “up-regulated by TSA”, the “expression of cytochrome oxidase subunit VIII, mouse T-complex protein, insulin growth factor binding protein-3” value ([3]; genes up-regulated by phenylephrine) was “down-regulated by TSA” and the “basal SERCA2 promoter activity” value [4] was “increased the basal promoter activities”. For the same compound, the “basal αMyHC promoter activity” value [4] was “increased the basal promoter activities” and the “basal βMyHC promoter activity” value [4] was “not that of βMyHC”.
